Entries after “also recorded” stand apart in the source; their conditions may differ.

Results on three molecules are retold here after patent US20200289495A1, “METHODS OF INHIBITING ENDOTHELIN B RECEPTOR EXPRESSING TUMOR METASTASES” (ENB Therapeutics, Inc., priority 2020, published 2020).

Data set [1] relates to melanoma cell lines overexpressing ETBR. Description: Mouse melanoma brain metastasis model (xenografts of ETBR-overexpressing melanoma cell lines). Particulars: 60 mg/kg/day. The data set is classed as in vivo, mice. The protocol: FIGS. 5A, 5B, 5C, 5D, and 5E. ETBR antagonist inhibits melanoma brain metastasis in mice. […] In this study, lentiviral vectors were used to overexpress ETBR in melanoma cell lines, which were in turn used to implant xenografts in mice.
A192621 inhibits melanoma brain metastasis in mice (FIGS. 5A, 5B, 5C, 5D, and 5E). […] A192621 was administered at a dose of 60 mg/kg/day using a mouse melanoma model. […] In this study, lentiviral vectors were used to overexpress ETBR in melanoma cell lines, which were in turn used to implant xenografts in mice. […]

Data set [2] can be described thus: Body weight of athymic nude mice under intranasal BQ788. Format: in vivo. The protocol: FIG. 9. ETAR antagonist and Niacinamide mitigate weight loss from BQ788. Six week old athymic nude mice were administered the ETBR antagonist BQ788 intranasally in 20% DMSO at the indicated ascending doses over a period of 42 days. One group was additionally administered the ETAR antagonist Macitentan orally at a dose of 5 mg/kg daily. The drinking water of these mice was supplemented with the B vitamin niacinamide at a concentration of 0.3 mg/mL. […] Co-administration of the ETAR antagonist Macitentan with niacinamide supplementation mitigated this weight loss. […] Co-administration of ETAR antagonists and niacinamide with ETBR antagonists mitigated the adverse effects of ETBR antagonists when administered for therapeutic purposes.
ETAR antagonist and Niacinamide mitigate weight loss from B0788 (FIG. 9). Six week old athymic nude mice (n=3 per group) were administered the ETBR antagonist BQ788 intranasally in 20% DMSO at the indicated ascending doses over a period of 42 days. One group was additionally administered the ETAR antagonist Macitentan orally at a dose of 5 mg/kg daily. The drinking water of these mice was supplemented with the B vitamin niacinamide at a concentration of 0.3 mg/mL. […] Co-administration of the ETAR antagonist Macitentan with niacinamide supplementation mitigated this weight loss. […]

Data set [3] has as its system SKMEL28 human melanoma cells. Description: SKMEL28 human melanoma xenograft growth and lung metastasis in mice. The data set is classed as in vivo. Here is the method:
FIGS. 4A and 4B. BQ788 inhibits melanoma growth and metastasis.
B0788 inhibits melanoma growth and metastasis (FIGS. 4A and 4B). […] Mice were implanted with 1×10^6 SKMEL28 human melanoma cells. Tumors were established for 10 days until palpable then 120 ng ([…]) BQ788 dissolved in DMSO was injected IP 3×per week×6 weeks. Mice were then sacrificed and lungs harvested and tumors weighed. A 75% reduction in tumor weight was observed.
Background: Xenograft models place foreign cells or tissue in a host animal.

In data set [4] the test system is A375 human melanoma cells. Description: A375 subcutaneous melanoma xenograft in Nu/J nude mice. The data set is classed as in vivo. Particulars: Dabrafenib 100 mg/Kg PO daily, alone or + BQ788 600 ng IP TIW; day 11, p<0.05. The protocol:
FIG. 7. BQ788 synergizes with Dabrafenib in vivo. A375 human melanoma cells were implanted subcutaneously into the rear flank of Nu/J nude mice and allowed to grow to 150 mm3-200 mm3 prior to randomization and initiation of treatment. The mice received the following treatments: (1) vehicle (n=8), (2) Dabrafenib 100 mg/Kg PO daily (n=5), and (3) Dabrafenib+BQ788 600 ng IP TIW (n=5).
B0788 synergizes with a bRAF inhibitor in vivo (FIG. 7). A375 human melanoma cells (3×10^6) were implanted subcutaneously into the rear flank of Nu/J nude mice and allowed to grow to 150 mm3-200 mm3 prior to randomization and initiation of treatment. The treatment groups were as follows: (1) vehicle (n=8), Dabrafenib 100 mg/Kg PO daily (n=5), (2) Dabrafenib+BQ788 600 ng IP 3×per week (n=5).

With `CCCOc1ccc([C@H]2[C@H](C(=O)O)[C@@H](c3ccc4c(c3)OCO4)CN2CC(=O)Nc2c(CC)cccc2CC)cc1` [A192621, (2R,3R,4S)-4-(1,3-benzodioxol-5-yl)-1-[2-(2,6-diethylanilino)-2-oxoethyl]-2-(4-propoxyphenyl)pyrrolidine-3-carboxylic acid], in data set [1], the CNS melanoma tumors entry is “shrinks CNS melanoma tumors”, the brain melanoma metastases entry is reported as “shrinks brain melanoma metastases” and the survival result is on record as “increases survival”.

With `CCCC[C@@H](NC(=O)[C@@H](Cc1cn(C(=O)OC)c2ccccc12)NC(=O)[C@H](CC(C)(C)C)NC(=O)N1[C@H](C)CCC[C@@H]1C)C(=O)O` [BQ788], the “average weight loss relative to baseline body weight” value in data set [2] (BQ788 intranasally in 20% DMSO, ascending doses over 42 days, end of study) amounted to 5%. Besides, in data set [2] (BQ788 intranasally over 42 days, alone or with Macitentan 5 mg/kg daily orally and niacinamide 0.3 mg/mL in drinking water), the “body weight / thriving” value is reported as “failed to thrive”. In addition, the “clearance of lung metastases” value in data set [3] (120 ng (˜60 ug/kg) BQ788 in DMSO IP 3× per week × 6 weeks, lungs vs control mice) is on record as more than 95%. The “apoptosis in melanoma tumor cells” value in data set [3] (FIGS. 4A and 4B) is listed as “induces apoptosis”.

Regarding `CC(C)(C)c1nc(-c2cccc(NS(=O)(=O)c3c(F)cccc3F)c2F)c(-c2ccnc(N)n2)s1` [Dabrafenib], the tumor growth entry in data set [4] is recorded as “retarded the growth of tumors; also recorded: retarded tumor growth”.
